Test results: US20200405696A1, “INHIBITORS OF INDOLEAMINE 2,3-DIOXYGENASE AND/OR TRYPTOPHAN 2,3-DIOXYGENASE” (IDORSIA PHARMACEUTICALS LTD, priority 2018, published 2020)

How the values were obtained:
[1] = molecular target: T1, Recombinant human TDO comprising amino acids 19-407 (Homo sapiens, UniProt P48775); assay: TDO2 enzymatic assay (NFK quantified by LCMS); format: biochemical; settings: 15 nM enzyme, 200 μM L-tryptophan, pH7, 30 minutes pre-incubation at RT; mean values when measured multiple times; read-out: hTDO activity (IC50 in nM)
T1 construct: Recombinant human TDO comprising amino acids 19-407 with a N-terminal hexahistidine tag; hexahistidine (His6) (N); made in house; host or cells: E. coli
Summary of the method: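 NFK formed over 30 min at RT from 200 μM L-tryptophan was measured by LCMS, normalized to d5-tryptophan, after compound (0.5 nM–10 μM, duplicates, 0.6% DMSO) was preincubated 30 min with 15 nM recombinant His-tagged TDO 19-407 in phosphate buffer pH 7. IC50 from four-parameter logistic fit; repeats averaged.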

[2] = molecular target: T2, Recombinant full-length human IDO1 (Homo sapiens, UniProt P14902); assay: IDO1 enzymatic assay (NFK quantified by LCMS); format: biochemical; settings: 2 nM enzyme, 5 μM L-tryptophan, pH6.5, 30 minutes pre-incubation at RT; mean values when measured multiple times; read-out: hIDO activity (IC50 in nM)
T2 construct: Recombinant full-length human IDO1 with a N-terminal hexahistidine tag; hexahistidine (His6) (N); made in house; host or cells: E. coli
Summary of the method: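 His-tagged human IDO1 (2 nM) in pH 6.5 phosphate buffer with ascorbate, methylene blue and catalase was preincubated with compound (10 μM–0.5 nM, 0.6% DMSO) for 30 min at RT. The reaction then ran with 5 μM L-Trp for 30 min. NFK was measured by LCMS against a d5-Trp standard, and IC50 was obtained by four-parameter fit.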

T2 sequence (P14902 whole entry): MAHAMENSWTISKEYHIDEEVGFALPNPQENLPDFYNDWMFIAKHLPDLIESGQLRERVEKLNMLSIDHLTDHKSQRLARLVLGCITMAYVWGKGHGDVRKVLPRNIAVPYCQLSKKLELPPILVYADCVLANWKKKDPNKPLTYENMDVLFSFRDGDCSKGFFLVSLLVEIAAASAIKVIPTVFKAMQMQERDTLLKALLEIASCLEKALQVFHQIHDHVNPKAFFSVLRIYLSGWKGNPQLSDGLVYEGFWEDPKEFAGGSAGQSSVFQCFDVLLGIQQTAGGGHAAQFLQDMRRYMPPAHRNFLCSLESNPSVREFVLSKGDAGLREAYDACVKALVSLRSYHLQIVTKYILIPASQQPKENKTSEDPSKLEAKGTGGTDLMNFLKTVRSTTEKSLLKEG
T1 sequence (P48775 19-406 limits assumed): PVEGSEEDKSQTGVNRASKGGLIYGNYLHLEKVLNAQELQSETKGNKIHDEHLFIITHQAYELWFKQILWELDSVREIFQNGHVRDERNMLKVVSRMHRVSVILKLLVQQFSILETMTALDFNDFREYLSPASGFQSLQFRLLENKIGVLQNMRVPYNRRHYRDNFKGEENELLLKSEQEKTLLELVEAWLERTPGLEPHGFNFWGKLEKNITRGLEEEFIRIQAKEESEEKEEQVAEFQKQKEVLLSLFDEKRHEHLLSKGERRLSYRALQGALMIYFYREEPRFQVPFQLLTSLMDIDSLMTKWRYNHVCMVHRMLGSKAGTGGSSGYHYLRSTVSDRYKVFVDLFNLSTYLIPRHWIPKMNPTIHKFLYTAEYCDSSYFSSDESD

SMILES	IC50 [1] [nM]	IC50 [2] [nM]
Cc1c(C(O)c2c(C3CC3)sc3cncn23)nnn1-c1ccccc1 (racemic) [Example 101, rac-(2-Cyclopropyl-imidazo[5,1-b]thiazol-3-yl)-(5-methyl-1-phenyl-1H-[1,2,3]triazol-4-yl)-methanol]	7150	17
COc1ccc(-n2cc(C(O)c3c(C4CC4)sc4cncn34)cn2)cc1C#N (racemic) [Example 247, rac-5-{4-[(2-Cyclopropyl-imidazo[5,1-b]thiazol-3-yl)-hydroxy-methyl]-pyrazol-1-yl}-2-methoxy-benzonitrile]	8140	31.3
OC(c1cn(-c2cccnc2)nn1)c1c(C2CC2)sc2cncn12 (racemic) [Example 15, rac-(2-Cyclopropyl-imidazo[5,1-b]thiazol-3-yl)-(1-pyridin-3-yl-1H-[1,2,3]triazol-4-yl)-methanol]	> 10200	95.8
CCOc1ncc(-n2cc(C(O)c3c(C4CC4)sc4cncn34)nn2)cc1C(F)(F)F (racemic) [Example 76, rac-(2-Cyclopropyl-imidazo[5,1-b]thiazol-3-yl)-[1-(6-ethoxy-5-trifluoromethyl-pyridin-3-yl)-1H-[1,2,3]triazol-4-yl]-methanol]	> 10200	363
COc1cc(F)c(-n2cc(C(O)c3c(C4CC4)sc4cncn34)nn2)cc1Cl (racemic) [Example 300, rac-[1-(5-Chloro-2-fluoro-4-methoxy-phenyl)-1H-[1,2,3]triazol-4-yl]-(2-cyclopropyl-imidazo[5,1-b]thiazol-3-yl)-methanol]	> 10200	6.66
O[C@@H](c1cn(-c2ccc(OCC3(F)COC3)c(Cl)c2)nn1)c1c(C2CC2)sc2cncn12 [Example 282, (R)-{1-[3-Chloro-4-(3-fluoro-oxetan-3-ylmethoxy)-phenyl]-1H-[1,2,3]triazol-4-yl}-(2-cyclopropyl-imidazo[5,1-b]thiazol-3-yl)-methanol]	> 10200	5.58
OC(c1cn(-c2ccc(OCCOCC(F)(F)F)cc2)nn1)c1c(C2CC2)sc2cncn12 (racemic) [Example 312, rac-(2-Cyclopropyl-imidazo[5,1-b]thiazol-3-yl)-(1-{4-[2-(2,2,2-trifluoro-ethoxy)-ethoxy]-phenyl}-1H-[1,2,3]triazol-4-yl)-methanol]	> 10200	29.4
Oc1ccc(-n2cc(C(O)c3c(C4CC4)sc4cncn34)nn2)cc1C(F)(F)F (racemic) [Example 209, rac-4-{4-[(2-Cyclopropyl-imidazo[5,1-b]thiazol-3-yl)-hydroxy-methyl]-[1,2,3]triazol-1-yl}-2-trifluoromethyl-phenol]	> 10200	22.1
CCc1sc2cncn2c1C(O)c1cn(-c2cc(F)c(OC)cc2F)nn1 (racemic) [Example 321, rac-[1-(2,5-Difluoro-4-methoxy-phenyl)-1H-[1,2,3]triazol-4-yl]-(2-ethyl-imidazo[5,1-b]thiazol-3-yl)-methanol]	3680	2.13
Oc1ccc(-n2cc(C(O)c3c(C4CC4)sc4cncn34)nn2)c(Cl)c1 (racemic) [Example 212, rac-3-Chloro-4-{4-[(2-cyclopropyl-imidazo[5,1-b]thiazol-3-yl)-hydroxy-methyl]-[1,2,3]triazol-1-yl}-phenol]	6190	10.5
Oc1ccc(-n2cc(C(O)c3c([C@@H]4C[C@@H]4F)sc4cncn34)nn2)cc1Cl (relative stereo) [Example 325, 2-Chloro-4-(4-{[2-(cis-2-fluoro-cyclopropyl)-imidazo[5,1-b]thiazol-3-yl]-hydroxy-methyl}-[1,2,3]triazol-1-yl)-phenol]	> 10200	8.31
Cc1c([C@H](O)c2c(C3CC3)sc3cncn23)nnn1-c1ccccc1 [Example 101a, (R)-(2-Cyclopropyl-imidazo[5,1-b]thiazol-3-yl)-(5-methyl-1-phenyl-1H-[1,2,3]triazol-4-yl)-methanol]	4410	6.31
OC(c1cn(-c2cncnc2)nn1)c1c(C2CC2)sc2cncn12 (racemic) [Example 19, rac-(2-Cyclopropyl-imidazo[5,1-b]thiazol-3-yl)-(1-pyrimidin-5-yl-1H-[1,2,3]triazol-4-yl)-methanol]	> 10200	182
OC(c1ncc(-c2ccccc2)s1)c1c(C2CC2)sc2cncn12 (racemic) [Example 171, rac-(2-Cyclopropyl-imidazo[5,1-b]thiazol-3-yl)-(5-phenyl-thiazol-2-yl)-methanol]	> 10200	578
N#Cc1cccc(-n2cc(C(O)c3c(C4CC4)sc4cncn34)nn2)c1 (racemic) [Example 18, rac-3-{4-[(2-Cyclopropyl-imidazo[5,1-b]thiazol-3-yl)-hydroxy-methyl]-[1,2,3]triazol-1-yl}-benzonitrile]	> 10200	9.32

Next, values leading:

IC50 [1] [nM]	IC50 [2] [nM]	SMILES
> 10200	93.3	CCc1sc2cncn2c1C(O)c1cn(-c2ccc(C(=O)N3CCOCC3)cc2)nn1 (racemic) [Example 117, rac-(4-{4-[(2-Ethyl-imidazo[5,1-b]thiazol-3-yl)-hydroxy-methyl]-[1,2,3]triazol-1-yl}-phenyl)-morpholin-4-yl-methanone]
2070	25.6	CCCCNC(=O)Nc1ccc(-n2cc(C(O)c3c(CC)sc4cncn34)nn2)cc1 (racemic) [Example 122, rac-1-Butyl-3-(4-{4-[(2-ethyl-imidazo[5,1-b]thiazol-3-yl)-hydroxy-methyl]-[1,2,3]triazol-1-yl}-phenyl)-urea]
4440	5.25	Oc1ccc(-n2cc([C@H](O)c3c(C4CC4)sc4cncn34)nn2)cc1Cl [Example 148a, 2-Chloro-4-{4-[(R)-(2-cyclopropyl-imidazo[5,1-b]thiazol-3-yl)-hydroxy-methyl]-[1,2,3]triazol-1-yl}-phenol]
5060	41.8	CCc1sc2cncn2c1C(O)c1cn(-c2cncc3ccccc23)nn1 (racemic) [Example 52, rac-(2-Ethyl-imidazo[5,1-b]thiazol-3-yl)-(1-isoquinolin-4-yl-1H-[1,2,3]triazol-4-yl)-methanol]
> 10200	5.98	COc1ccc(-n2cc([C@H](O)c3c(C4CC4)sc4cncn34)nn2)cc1 [Example 9a, (R)-(2-Cyclopropyl-imidazo[5,1-b]thiazol-3-yl)-[1-(4-methoxy-phenyl)-1H-[1,2,3]triazol-4-yl]-methanol]
8320	37.8	CCCCNC(=O)Nc1ccc(-n2cc(C(O)c3c(C4CC4)sc4cncn34)nn2)cc1 (racemic) [Example 188, rac-1-Butyl-3-(4-{4-[(2-cyclopropyl-imidazo[5,1-b]thiazol-3-yl)-hydroxy-methyl]-[1,2,3]triazol-1-yl}-phenyl)-urea]
> 10200	8.08	Oc1ccc(-n2cc(C(O)c3c(C4CC4)sc4cncn34)nn2)cc1 (racemic) [Example 68, rac-4-{4-[(2-Cyclopropyl-imidazo[5,1-b]thiazol-3-yl)-hydroxy-methyl]-[1,2,3]triazol-1-yl}-phenol]
3840	4.44	CCc1sc2cncn2c1C(O)c1cn(-c2ccc(N)c(Cl)c2)nn1 (racemic) [Example 272, rac-[1-(4-Amino-3-chloro-phenyl)-1H-[1,2,3]triazol-4-yl]-(2-ethyl-imidazo[5,1-b]thiazol-3-yl)-methanol]
> 10200	105	CN(C)S(=O)(=O)c1ccc(-n2cc(C(O)c3c(C4CC4)sc4cncn34)nn2)cc1 (racemic) [Example 236, rac-4-{4-[(2-Cyclopropyl-imidazo[5,1-b]thiazol-3-yl)-hydroxy-methyl]-[1,2,3]triazol-1-yl}-N,N-dimethyl-benzenesulfonamide]
> 10200	13.7	CC(C)(C)C(=O)Nc1ccc(-n2cc(C(O)c3c(C4CC4)sc4cncn34)nn2)cc1 (racemic) [Example 187, rac-N-(4-{4-[(2-Cyclopropyl-imidazo[5,1-b]thiazol-3-yl)-hydroxy-methyl]-[1,2,3]triazol-1-yl}-phenyl)-2,2-dimethyl-propionamide]
> 10200	72.7	OC(c1cn(-c2ccc(N3CCOCC3)cc2)nn1)c1c(C2CC2)sc2cncn12 (racemic) [Example 38, rac-(2-Cyclopropyl-imidazo[5,1-b]thiazol-3-yl)-[1-(4-morpholin-4-yl-phenyl)-1H-[1,2,3]triazol-4-yl]-methanol]
7480	28.3	CCc1sc2cncn2c1C(O)c1cn(-c2ccc(S(N)(=O)=O)cc2)nn1 (racemic) [Example 240, rac-4-{4-[(2-Ethyl-imidazo[5,1-b]thiazol-3-yl)-hydroxy-methyl]-[1,2,3]triazol-1-yl}-benzenesulfonamide]
> 10200	7.77	OC(c1cn(-c2ccc(OCC3(F)COC3)cc2)nn1)c1c(C2CC2)sc2cncn12 (racemic) [Example 145, rac-(2-Cyclopropyl-imidazo[5,1-b]thiazol-3-yl)-{1-[4-(3-fluoro-oxetan-3-ylmethoxy)-phenyl]-1H-[1,2,3]triazol-4-yl}-methanol]
